Patent publication EP0661259B1, “Substituted (5,6)-dihydronaphthalenyl compounds having retinoid-like activity” (BRISTOL-MYERS SQUIBB COMPANY, priority 1994, dated 1995)
Read-outs that look alike come from different tables or passages of the source.

What was measured:
lung line L2987 = experiment: Cytotoxicity assay (alamarBlue viability); assay type: cell-based; details: Homo sapiens
Protocol: Figure 1, 2 and 3 are the cytotoxicity dose response curves for lung line L2987. […] Briefly, the assayed involved plating 1000 cells per well in a volume of 120 µL in a 96 well flat-bottom dish (Corning) on day -1. Twenty-four hours later the appropriate dilution of a compound of formula I was added in a volume of 30 µL complete medium (final volume 150 µL). The plates were sealed with a plate sealer (Dynatech Labs) to prevent evaporation. On day 5 the mylar film was removed and 15 µL of sterile alamarBlue was added to each well and the cells were incubated 37 °C 5% CO2 for two hours. Using a Vmax plate reader the optical density for each well was determined having the OD570 subtracted from the OD600. The 100% signal was determined for cells grown in complete medium containing only 0.5% DMSO. All wells were set-up in triplicate and the mean values were plotted in Figures 1, 2 and 3.

rhino mouse = experiment: Rhino mouse utriculi reduction assay; assay type: in vivo, female hairless rhino mice (hr^rh/hr^rh); details: concentration to reach 30% utriculi reduction; topical in ethanol vehicle (50ul) to dorsal area once daily for 5 days; tested range 0.00033 mM to 16.5 mM
Protocol: Representatives from compounds of formula I were tested for their effect on utriculi reduction on rhino mouse and directly compared to all-trans retinoic acid.
Six to nine week old female hairless rhino mice (hr^rh/hr^rh) were produced in the Bristol-Myers Squibb colony. Test retinoids in ethanol vehicle (50ul) were applied to the dorsal area (approximately 1.5 x 3 cm^2) of rhino mice once daily for 5 days (Monday to Friday). For various retinoids, a dose response was obtained with concentrations ranging from 0.00033 mM to 16.5 mM. The animals were sacrificed on the following Monday by CO2 inhalation. A 7/8" full thickness punch was taken from the central dorsal area of each animal. The epidermis of the biopsy was removed from the dermis after incubation in 0.5% acetic acid overnight at 4°C. The separated epidermis was then fixed in formalin, dehydrated with ethanol, and cleared in xylene. To determine the utriculi diameter, each epidermis sheet was placed on a glass slide in xylene. For each specimen, the diameter of 40 utricules was measured with an image analysis system (IBM PC, Image Measure program and Olympus microscope with video camera). % Utriculi reduction was calculated as (1 -(utriculi diameter in the test group)/(utriculi diammeter in the ethanol control group))× 100% [formula] […]

[1] = L2987, L2987 experiment 2, 1000 cells per well, compound added after 24 h, read on day 5, read-out: IC50

Row | SMILES | IC50 (lung line L2987; [1]) [µM] | ED30 (rhino mouse) | IC50 (lung line L2987; L2987) [µM]
1 | CC1(C)CC=C(c2ccccc2)c2cc(COc3ccc(C(=O)O)cc3)ccc21 [I^26a, 4-[[[(5,6-Dihydro-5,5-dimethyl-8-phenyl)-2-naphthalenyl]methyl]oxy]benzoic acid] | 48 |  | 
2 | CC1(C)CC=C(c2ccccc2)c2cc(C(=O)Nc3ccc(C(=O)O)cc3)ccc21 [I^4a] | 28 |  | 
3 | CC1(C)C=C(c2ccccc2)c2cc(C=Cc3ccc(C(=O)O)cc3)ccc21 [I^33a, 4-[2-(1,1-dimethyl-3-phenyl-1H-inden-5-yl)vinyl]benzoic acid] |  | 0.86 | 
4 | CC1(C)C=C(c2ccccc2)c2cc(C(=O)Nc3ccc(C(=O)O)cc3)ccc21 [I^30a, 4-[(1,1-Dimethyl-3-phenyl-1H-indene-5-carbonyl)amino]benzoic acid] | 60 | 2.35 | 
5 | CC1=C(/C=C/C(C)=C/C=C/C(C)=C/C(=O)O)C(C)(C)CCC1 [All trans retinoic acid, reference compound] |  |  | 68
6 | CC1(C)CC=C(c2ccccc2)c2cc(C(=O)Oc3ccc(C(=O)O)cc3)ccc21 [I^10a] | 47 |  | 
7 | CC1(C)CC=C(c2ccccc2)c2cc(C(=O)Sc3ccc(C(=O)O)cc3)ccc21 [I^12a] | > 100 |  | 
